# Literature values as cited in paper PMC6544043 (ACS infectious diseases, 2019).
# Target: adenosine/guanosine preferring nucleoside ribohydrolase (AGNH) (Trichomonas vaginalis, UniProt A2EYV3)
# Details: read-out: inhibitor potency; cited from earlier work
smiles,measurement,value
OC[C@H]1O[C@@H](n2cnc3c(NC4CCCC4)nc(Cl)nc32)[C@H](O)[C@@H]1O [2-chloro-N(6)-cyclopenty-ladenosine],IC50,9 µM
